Target: T1, PfGCC (geranyl-CoA carboxylase holoenzyme, α6β6) (Pseudomonas protegens, UniProt Q4K8Z5)
T1 construct: gene atuC; bicistronic; beta N-terminal His6-tagged (tag not removed), alpha untagged; expressed in E. coli BL21 Star (DE3); 750-kDa α6β6 dodecamer; with Geranyl-CoA carboxylase alpha subunit (biotin-containing; BC, BT and BCCP domains)
Assay: coupled pyruvate kinase / lactate dehydrogenase assay, ATP hydrolysis as NADH loss at […] nm
Assay type: biochemical
Settings: pH 8.0, 0.5 mM ATP, 8 mM MgCl2, 40 mM KHCO3, 250 mM KCl; cis/trans mixture, only ~25% cis, concentration counted as total; read-out: apparent Km

Q: For geranyl-CoA, which Km is on record?
A: Its Km is 50 µM.

From PMC4673880, “Structure and substrate selectivity of the 750-kDa α6β6 holoenzyme of geranyl-CoA carboxylase” (Nature Communications, 2015)
